Source: patent publication US7915291B2, “Hepatitis C virus inhibitors” (Bristol-Myers Squibb Company, priority 2002, dated 2011)
Read-outs that look alike come from different tables or passages of the source.

Biological target: HCV NS3/4A protease complex, BMS strain (UniProt P27958, C1454S/C1711G, species not given/STRAIN_BMS)
Assay: Recombinant HCV NS3/4A protease complex FRET peptide assay (BMS strain)
Type: biochemical, HCV genotype 1a
Method in brief: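 Recombinant BMS-strain NS3/4A (His-tagged NS4A with three-lysine tail, E. coli) at 2-3 nM preincubated 1 min with compound, then 2 μM ester-linked NS4A/NS4B-based FRET peptide added. Fluorescence followed in real time ~15 min at 25° C. Percent inhibition from slope of linear fluorescence change versus no-compound control.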

SMILES: C=C[C@@H]1C[C@]1(NC(=O)[C@@H]1C[C@@H](Oc2nc(C3CC3)cc3ccccc23)CN1C(=O)[C@@H](NC(=O)OC(C)(C)C)C(C)(C)C)C(=O)NS(=O)(=O)C1CC1 [Compound 34]
- IC50 (BMS strain, read-out: IC50 against the NS3/4A BMS strain in the enzyme assay): 0.023 µM
- IC50 (NS3/4A BMS strain, read-out: IC50 range): < 0.1 µM
